Experimental data: ChEMBL document CHEMBL1140512, “N-Alkylidenearylcarboxamides as new potent and selective CB(2) cannabinoid receptor agonists with good oral bioavailability” (Bioorg Med Chem Lett, 2007)

Columns and labels:
Cannabinoid receptor 2 [1] = biological target: T1, Cannabinoid receptor 2 (Homo sapiens, UniProt P34972); experiment: Displacement of [3H]CP-55940 form human CB2 receptor expressed in CHO cells; assay type: cell-based
Cannabinoid receptor 2 [2] = biological target: T1, Cannabinoid receptor 2; experiment: Agonist activity at human CB2 receptor expressed in CHO cells by [35S]GTP-gamma-S binding assay; assay type: functional, cell-based
Cannabinoid receptor 2 [3] = biological target: T1, Cannabinoid receptor 2; experiment: Efficacy at human CB2 receptor expressed in CHO cells by [35S]GTP-gamma-S binding assay relative to CP-55940; assay type: functional, cell-based
[4] = Metabolic stability in human liver microsomes assessed as parent compound remaining after 15 mins; assay type: ADME, Microsome; details: read-out: Stability
Cannabinoid receptor 1 = Cannabinoid receptor 1 (Homo sapiens, UniProt P21554); experiment: Displacement of [3H]CP-55940 form human CB1 receptor expressed in CHO cells; assay type: cell-based
Cannabinoid receptor 2 [5] = biological target: T1, Cannabinoid receptor 2; experiment: Displacement of [3H]CP-55940 form human CB2 receptor expressed in CHO cells at 100 nM; assay type: cell-based
Homo sapiens = species: Homo sapiens; experiment: Selectivity for human CB2 receptor over CB1 receptor
[6] = Tmax in rat at 10 mg/kg, po; assay type: ADME, organism-based; set-up: dose 10 mg/kg, route oral; details: in vivo
[7] = Cmax in rat at 10 mg/kg, po; assay type: ADME, organism-based; set-up: dose 10 mg/kg, route oral; details: in vivo
[8] = Half life in rat at 10 mg/kg, po; assay type: ADME, organism-based; set-up: dose 10 mg/kg, route oral; details: in vivo
[9] = AUC (0 to 24 hrs) in rat at 10 mg/kg, po; assay type: ADME, organism-based; set-up: time < 24 hr, dose 10 mg/kg, route oral; details: plasma
[10] = Tmax in rat at 3 mg/kg, po; assay type: ADME, organism-based; set-up: dose 3 mg/kg, route oral; details: in vivo
[11] = Tmax in rat at 30 mg/kg, po; assay type: ADME, organism-based; set-up: dose 30 mg/kg, route oral; details: in vivo
[12] = Cmax in rat at 3 mg/kg, po; assay type: ADME, organism-based; set-up: dose 3 mg/kg, route oral; details: in vivo
[13] = Cmax in rat at 30 mg/kg, po; assay type: ADME, organism-based; set-up: dose 30 mg/kg, route oral; details: in vivo
[14] = Half life in rat at 3 mg/kg, po; assay type: ADME, organism-based; set-up: dose 3 mg/kg, route oral; details: in vivo
[15] = Half life in rat at 30 mg/kg, po; assay type: ADME, organism-based; set-up: dose 30 mg/kg, route oral; details: in vivo
[16] = AUC (0 to 24 hrs) in rat at 3 mg/kg, po; assay type: ADME, organism-based; set-up: time < 24 hr, dose 3 mg/kg, route oral; details: plasma
[17] = AUC (0 to 24 hrs) in rat at 30 mg/kg, po; assay type: ADME, organism-based; set-up: time < 24 hr, dose 30 mg/kg, route oral; details: plasma
[18] = Oral bioavailability in rat at 3 mg/kg, po; assay type: ADME, organism-based; details: in vivo

T1 sequence (P34972 whole entry): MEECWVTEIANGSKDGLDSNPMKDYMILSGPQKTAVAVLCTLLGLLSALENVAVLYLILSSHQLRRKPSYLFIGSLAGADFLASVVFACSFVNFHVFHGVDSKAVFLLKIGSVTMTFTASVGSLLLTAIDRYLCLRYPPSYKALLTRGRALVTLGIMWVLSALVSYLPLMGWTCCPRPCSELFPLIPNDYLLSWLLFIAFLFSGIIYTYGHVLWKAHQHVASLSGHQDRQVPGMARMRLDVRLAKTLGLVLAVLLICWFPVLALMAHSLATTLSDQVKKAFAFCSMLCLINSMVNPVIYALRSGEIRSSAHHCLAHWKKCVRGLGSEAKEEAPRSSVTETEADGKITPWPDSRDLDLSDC
Sequence of Cannabinoid receptor 1 (P21554 whole entry): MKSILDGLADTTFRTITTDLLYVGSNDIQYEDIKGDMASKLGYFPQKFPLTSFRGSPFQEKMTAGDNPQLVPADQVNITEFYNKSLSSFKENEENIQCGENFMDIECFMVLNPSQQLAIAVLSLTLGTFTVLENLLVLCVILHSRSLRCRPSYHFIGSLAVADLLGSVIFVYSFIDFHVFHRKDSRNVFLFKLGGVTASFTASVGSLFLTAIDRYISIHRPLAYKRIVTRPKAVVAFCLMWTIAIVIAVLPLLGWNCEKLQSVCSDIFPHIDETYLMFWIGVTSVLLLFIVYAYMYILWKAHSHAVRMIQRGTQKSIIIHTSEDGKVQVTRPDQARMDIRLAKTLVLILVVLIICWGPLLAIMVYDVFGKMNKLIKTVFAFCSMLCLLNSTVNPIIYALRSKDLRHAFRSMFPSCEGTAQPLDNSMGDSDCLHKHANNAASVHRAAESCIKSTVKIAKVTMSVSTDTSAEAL

CCOC(=O)c1s/c(=N\C(=O)c2cccc(C(F)(F)F)c2)n(CC2CC2)c1C
IC50 (Cannabinoid receptor 2 [1]): 110 nM

COc1cccc(C(=O)/N=c2\sc(C(C)(C)C)c(C)n2CC2CC2)c1
IC50 (Cannabinoid receptor 2 [1]): 24 nM

Cc1c(C(C)(C)C)s/c(=N\C(=O)c2ccccc2)n1CC1CC1
IC50 (Cannabinoid receptor 2 [1]): 260 nM
EC50 (Cannabinoid receptor 2 [2]): 86 nM
Emax (Cannabinoid receptor 2 [3]): 100%

Cc1c(C(C)(C)C)s/c(=N\C(=O)c2cccc(N(C)C)c2)n1CC1CC1
remaining at 0.25 h [4]: 44%
IC50 (Cannabinoid receptor 2 [1]): 17 nM

Cc1c(C(C)(C)C)s/c(=N\C(=O)c2cccc(Br)c2)n1CC1CC1
IC50 (Cannabinoid receptor 2 [1]): 1.2 nM
IC50 (Cannabinoid receptor 1): 53 nM
EC50 (Cannabinoid receptor 2 [2]): 0.3 nM
Emax (Cannabinoid receptor 2 [3]): 96%

Cc1c(C(C)(C)C)s/c(=N\C(=O)c2cc(C(F)(F)F)cc(C(F)(F)F)c2)n1CC1CC1
inhibition (Cannabinoid receptor 2 [5]): 10%

Cc1s/c(=N\C(=O)c2cccc(C(F)(F)F)c2)n(CC2CC2)c1C
IC50 (Cannabinoid receptor 2 [1]): 25 nM

Cc1c(C(C)(C)C)s/c(=N\C(=O)c2ccc(C(F)(F)F)cc2)n1CC1CC1
inhibition (Cannabinoid receptor 2 [5]): 24%

Cc1c(C(C)(C)C)s/c(=N\C(=O)c2cccc(Cl)c2)n1CC1CC1
IC50 (Cannabinoid receptor 2 [1]): 20 nM

Cc1c(C(=O)N(C)C)s/c(=N\C(=O)c2cccc(C(F)(F)F)c2)n1CC1CC1
IC50 (Cannabinoid receptor 2 [1]): 1000 nM

Cc1c(C(C)(C)C)s/c(=N\C(=O)c2ccccc2C(F)(F)F)n1CC1CC1
IC50 (Cannabinoid receptor 1): 140 nM

Cc1c(C(C)(C)C)s/c(=N\C(=O)c2cccc(C(F)(F)F)c2Cl)n1CC1CC1
IC50 (Cannabinoid receptor 2 [1]): 0.41 nM

Cc1cccc(C(=O)/N=c2\sc(C(C)(C)C)c(C)n2CC2CC2)c1
IC50 (Cannabinoid receptor 2 [1]): 22 nM

CCOCCn1c(C)c(C(C)(C)C)s/c1=N\C(=O)c1cccc(C(F)(F)F)c1
IC50 (Cannabinoid receptor 1): 690 nM
EC50 (Cannabinoid receptor 2 [2]): 2 nM
Emax (Cannabinoid receptor 2 [3]): 45%

Cc1c(C(C)(C)C)s/c(=N\C(=O)c2cc(C(F)(F)F)ccc2F)n1CC1CC1
IC50 (Cannabinoid receptor 1): 1500 nM
EC50 (Cannabinoid receptor 2 [2]): 1.5 nM
Emax (Cannabinoid receptor 2 [3]): 85%
Ratio IC50 (Homo sapiens): 440

CCCn1c(C)c(C(C)(C)C)s/c1=N\C(=O)c1cccc(C(F)(F)F)c1
IC50 (Cannabinoid receptor 2 [1]): 46 nM

Cc1c(C(C)C)s/c(=N\C(=O)c2cccc(C(F)(F)F)c2)n1CC1CC1
IC50 (Cannabinoid receptor 2 [1]): 29 nM

COCCn1c(C)c(C(C)(C)C)s/c1=N\C(=O)c1cccc(C(F)(F)F)c1
IC50 (Cannabinoid receptor 2 [1]): 10 nM
IC50 (Cannabinoid receptor 1): 4100 nM
EC50 (Cannabinoid receptor 2 [2]): 5.6 nM
Emax (Cannabinoid receptor 2 [3]): 59%

Cc1c(C(C)(C)C)s/c(=N\C(=O)c2cccc(OC(F)(F)F)c2)n1CC1CC1
IC50 (Cannabinoid receptor 2 [1]): 5.7 nM
IC50 (Cannabinoid receptor 1): 1100 nM
EC50 (Cannabinoid receptor 2 [2]): 7.6 nM
Emax (Cannabinoid receptor 2 [3]): 72%

Cc1c(C(C)(C)C)s/c(=N\C(=O)c2cccc(C(F)(F)F)c2)n1C
IC50 (Cannabinoid receptor 2 [1]): 220 nM

Cc1c(C(C)(C)C)s/c(=N\C(=O)c2ccc(Cl)c(C(F)(F)F)c2)n1CC1CC1
IC50 (Cannabinoid receptor 2 [1]): 230 nM

Cc1c(C(C)(C)C)s/c(=N\C(=O)c2cc(C(F)(F)F)ccc2Cl)n1CC1CC1
IC50 (Cannabinoid receptor 2 [1]): 2.1 nM
IC50 (Cannabinoid receptor 1): 830 nM
EC50 (Cannabinoid receptor 2 [2]): 4 nM
Emax (Cannabinoid receptor 2 [3]): 95%

COc1ccc(C(F)(F)F)cc1C(=O)/N=c1\sc(C(C)(C)C)c(C)n1CC1CC1
remaining at 0.25 h [4]: 85%
IC50 (Cannabinoid receptor 2 [1]): 1.2 nM
IC50 (Cannabinoid receptor 1): 1900 nM
EC50 (Cannabinoid receptor 2 [2]): 0.62 nM
Emax (Cannabinoid receptor 2 [3]): 100%
Ratio IC50 (Homo sapiens): 1600
Tmax [6]: 1 h
Cmax [7]: 148 ng/mL
half-life [8]: 4.07 h
AUC(0-t) at 24 h [9]: 1120 ng·h/mL

Cc1c(C(C)(C)C)s/c(=N\C(=O)c2cccc(F)c2)n1CC1CC1
inhibition (Cannabinoid receptor 2 [5]): 44%

Cc1ccc(C(F)(F)F)cc1C(=O)/N=c1\sc(C(C)(C)C)c(C)n1CC1CC1
IC50 (Cannabinoid receptor 2 [1]): 2.1 nM
IC50 (Cannabinoid receptor 1): 1200 nM
EC50 (Cannabinoid receptor 2 [2]): 2.7 nM
Emax (Cannabinoid receptor 2 [3]): 99%
Ratio IC50 (Homo sapiens): 570

Cc1c(C(C)(C)C)s/c(=N\C(=O)c2cc(C(F)(F)F)ccc2N(C)C)n1CC1CC1
IC50 (Cannabinoid receptor 2 [1]): 9.4 nM
IC50 (Cannabinoid receptor 1): > 10000 nM
EC50 (Cannabinoid receptor 2 [2]): 7.3 nM
Emax (Cannabinoid receptor 2 [3]): 89%
Ratio IC50 (Homo sapiens): > 1000

CCn1c(C)c(C(C)(C)C)s/c1=N\C(=O)c1cccc(C(F)(F)F)c1
IC50 (Cannabinoid receptor 2 [1]): 74 nM

Cc1c(C(C)(C)C)s/c(=N\C(=O)c2cccc(C(F)(F)F)c2)n1CC1CC1
IC50 (Cannabinoid receptor 2 [1]): 13 nM
IC50 (Cannabinoid receptor 1): 3500 nM
EC50 (Cannabinoid receptor 2 [2]): 10 nM
Ratio IC50 (Homo sapiens): 270
Tmax [10]: 1.67 h
Tmax [6]: 2 h
Tmax [11]: 2.67 h
Cmax [12]: 43.1 ng/mL
Cmax [7]: 223 ng/mL
Cmax [13]: 498 ng/mL
half-life [14]: 4.8 h
half-life [8]: 4.96 h
half-life [15]: 4.7 h
AUC(0-t) at 24 h [16]: 326 ng·h/mL
AUC(0-t) at 24 h [9]: 2050 ng·h/mL
AUC(0-t) at 24 h [17]: 4240 ng·h/mL
bioavailability [18]: 52%
